Data: patent US8946144B2, “Phosphonated glycopeptide and lipoglycopeptide antibiotics and uses thereof for the prevention and treatment of bone and joint infections” (The Medicines Company, priority 2006, dated 2015)
In brackets after ≈: the same amount, converted by molar mass. Where a name gives a salt, the structure may show the parent alone.

Columns and labels:
[1] = system: S. aureus strain ATCC13709; assay: Antibacterial susceptibility (MIC) in CAMHB; type: cell-based; conditions: for Minimum inhibitory concentration, CAMHB: S. aureus ATCC 13709, cation adjusted Mueller-Hinton broth, 37° C., 18 h; for MIC: Staphylococcus aureus, ATCC13709, 18 h, read-out: Minimum inhibitory concentration, CAMHB
Protocol: (§1) Susceptibility of S. aureus strain ATCC13709 to the commercial antibiotics and synthesized compounds was determined by following the guidelines set by the Clinical and Laboratory Standards Institute (formerly the National Committee for Clinical Laboratory Standards) (M26-A). Compounds were diluted two-fold serially in either DMSO (Vancomycin 4, Oritavancin 8, compounds 10, 31, 33, 39, 44, 50, 60, 65), DMF (compounds 18 and 21) or in PBS (compound 6) and transferred to cation-adjusted Mueller Hinton broth (CAMHB; Becton Dickinson). 50 μL of compounds diluted in CAMHB was mixed with […] of bacteria diluted in CAMHB in 96-well microtiter plates. The final number of micro-organisms in the assay was 5×10^5 c.f.u. per mL and the final concentration of DMSO or DMF in the assay, if present, was 1.25%. Assays were set up in duplicate and incubated at 37° C. for 18 h. The concentration of compound that inhibited visible growth was reported as the minimum inhibitory concentration (MIC).

[2] = system: S. aureus strain ATCC13709; assay: Antibacterial susceptibility (MIC) in the presence of 50% serum; type: cell-based; conditions: for Minimum inhibitory concentration, CAMHB + 50% Human Serum / Minimum inhibitory concentration, CAMHB + 50% Mouse Serum / Minimum inhibitory concentration, CAMHB + 50% Rat Serum: S. aureus ATCC 13709; for MIC: Staphylococcus aureus
Protocol: as §1
Susceptibility testing experiments were also carried out in the presence of serum. These experiments were carried out similar to the susceptibility testing with the following modifications. 75 μL of compounds diluted in CAMHB was mixed with 75 μL of bacteria diluted in 100% serum from any given source (commercial pooled mouse serum (MS) and human serum (HS), Equitech-Bio Inc.). The final concentration of animal serum in the assay was 50% and the concentrations of all other components were identical to those described for susceptibility testing.

[3] = Regeneration of parent drug from bone powder-bound prodrug; type: in vitro ADME; conditions: 24 h incubation, 37° C.
Protocol: Amounts of parent drug “regenerated” from the phosphonated prodrug were measured as follows. Washed bone powder-bound prodrugs from the above experiment were resuspended in 400 μL PBS+2% DMSO or in 400 μL 50% (v/v in PBS+2% DMSO) human or rat serum. The suspension was incubated overnight at 37° C., centrifuged at 13,000 rpm for 2 min and the supernatant was recovered. The amount of regenerated parent drug in the supernatant was determined by measurements using the microbiological assays that were previously described for the prodrugs themselves. The amount of released drug from prodrug was deduced from standard curves of known amounts of parent drug that were used as reference for each experiment. The amount of regenerated drug assessed by this bioassay was corroborated by MIC determination. The percentage of drug regenerated in PBS or serum after the overnight incubation (Table 2) was deduced from the difference between the amount of bound prodrug and the amount of regenerated drug (not shown).

[4] = ATCC13709, read-out: Minimum inhibitory concentration, CAMHB + 50% Human Serum
[5] = ATCC13709, read-out: Minimum inhibitory concentration, CAMHB + 50% Mouse Serum
[6] = ATCC13709, read-out: Minimum inhibitory concentration, CAMHB + 50% Rat Serum

Row | SMILES | Minimum inhibitory concentration, CAMHB [1] [µg/mL] | Minimum inhibitory concentration, CAMHB + 50% Human Serum [2] [µg/mL] | Minimum inhibitory concentration, CAMHB + 50% Mouse Serum [2] [µg/mL] | Minimum inhibitory concentration, CAMHB + 50% Rat Serum [2] [µg/mL] | % Conversion (prodrug converted to parent drug) ([3]; 50% human serum) [%] | % Conversion (prodrug converted to parent drug) ([3]; 50% rat serum) [%] | % Conversion (prodrug converted to parent drug) ([3]; PBS) [%] | MIC [1] [µg/mL] | MIC [2, 4] [µg/mL] | MIC [2, 5] [µg/mL] | MIC [2, 6] [µg/mL]
1 | CC(C)CC(C(=O)NC1C(=O)NC(CC(N)=O)C(=O)NC2C(=O)NC3C(=O)NC(C(=O)NC(C(=O)O)c4cc(O)cc(O)c4-c4cc3ccc4O)C(O)c3ccc(c(Cl)c3)Oc3cc2cc(c3OC2OC(CO)C(O)C(O)C2OC2CC(C)(N)C(O)C(C)O2)Oc2ccc(cc2Cl)C1O)N(C)C(=O)CCC(=O)NC(P(=O)(O)O)P(=O)(O)O (stereo not shown) [Compound 6] | 64 (≈ 37.2 µM) | 16 | 32 | 128 |  |  |  |  |  |  | 
2 | CC(C)C[C@H](C(=O)N[C@H]1C(=O)N[C@@H](CC(N)=O)C(=O)N[C@H]2C(=O)N[C@H]3C(=O)N[C@H](C(=O)N[C@H](C(=O)O)c4cc(O)cc(O)c4-c4cc3ccc4O)[C@H](O[C@H]3C[C@](C)(N)[C@@H](O)[C@H](C)O3)c3ccc(c(Cl)c3)Oc3cc2cc(c3O[C@@H]2O[C@H](CO)[C@@H](O)[C@H](O)[C@H]2O[C@H]2C[C@](C)(NCc3ccc(-c4ccc(Cl)cc4)cc3)[C@@H](O)[C@H](C)O2)Oc2ccc(cc2Cl)[C@H]1O)N(C)C(=O)CCCC(=O)NC(P(=O)(O)O)P(=O)(O)O.N.N.N [Compound 10] | >32 | >32 | >32 | >32 |  |  |  |  |  |  | 
3 | CNC(CC(C)C)C(=O)NC1C(=O)NC(CC(N)=O)C(=O)NC2C(=O)NC3C(=O)NC(C(=O)NC(C(=O)OCC(=O)NC(P(=O)(O)O)P(=O)(O)O)c4cc(O)cc(O)c4-c4cc3ccc4O)C(O)c3ccc(c(Cl)c3)Oc3cc2cc(c3OC2OC(CO)C(O)C(O)C2OC2CC(C)(N)C(O)C(C)O2)Oc2ccc(cc2Cl)C1O (stereo not shown) [Compound 18] | 16 (≈ 9.52 µM) | 8 | 16 | 32 | 2.34 | 2.58 | 2.09 |  |  |  | 
4 | CNC(CC(C)C)C(=O)NC1C(=O)NC(CC(N)=O)C(=O)NC2C(=O)NC3C(=O)NC(C(=O)NC(C(=O)OCC(=O)Nc4ccc(CC(P(=O)(O)O)P(=O)(O)O)cc4)c4cc(O)cc(O)c4-c4cc3ccc4O)C(O)c3ccc(c(Cl)c3)Oc3cc2cc(c3OC2OC(CO)C(O)C(O)C2OC2CC(C)(N)C(O)C(C)O2)Oc2ccc(cc2Cl)C1O (stereo not shown) [Compound 21] | 16 (≈ 9.04 µM) | 16 | 16 | 32 | 3.5 | 4.1 | 3.5 |  |  |  | 
5 | CN[C@H](CC(C)C)C(=O)N[C@H]1C(=O)N[C@@H](CC(N)=O)C(=O)N[C@H]2C(=O)N[C@H]3C(=O)N[C@H](C(=O)N[C@H](C(=O)OCC(=O)NC(P(=O)(O)O)P(=O)(O)O)c4cc(O)cc(O)c4-c4cc3ccc4O)[C@H](O[C@H]3C[C@](C)(N)[C@@H](O)[C@H](C)O3)c3ccc(c(Cl)c3)Oc3cc2cc(c3O[C@@H]2O[C@H](CO)[C@@H](O)[C@H](O)[C@H]2O[C@H]2C[C@](C)(NCc3ccc(-c4ccc(Cl)cc4)cc3)[C@@H](O)[C@H](C)O2)Oc2ccc(cc2Cl)[C@H]1O.O=C(O)C(F)(F)F.O=C(O)C(F)(F)F.O=C(O)C(F)(F)F [Compound 31] | 16 | 32 | 2 | 2 |  |  |  |  |  |  | 
6 | CN[C@H](CC(C)C)C(=O)N[C@H]1C(=O)N[C@@H](CC(N)=O)C(=O)N[C@H]2C(=O)N[C@H]3C(=O)N[C@H](C(=O)N[C@H](C(=O)OCC(=O)Nc4ccc(CC(P(=O)(O)O)P(=O)(O)O)cc4)c4cc(O)cc(O)c4-c4cc3ccc4O)[C@H](O[C@H]3C[C@](C)(N)[C@@H](O)[C@H](C)O3)c3ccc(c(Cl)c3)Oc3cc2cc(c3O[C@@H]2O[C@H](CO)[C@@H](O)[C@H](O)[C@H]2O[C@H]2C[C@](C)(NCc3ccc(-c4ccc(Cl)cc4)cc3)[C@@H](O)[C@H](C)O2)Oc2ccc(cc2Cl)[C@H]1O.N.N.N [Compound 33] | >32 | >32 | 8 | 8 |  |  |  |  |  |  | 
7 | CC(C)C[C@H](C(=O)N[C@H]1C(=O)N[C@@H](CC(N)=O)C(=O)N[C@H]2C(=O)N[C@H]3C(=O)N[C@H](C(=O)N[C@H](C(=O)O)c4cc(O)cc(O)c4-c4cc3ccc4O)[C@H](O[C@H]3C[C@](C)(N)[C@@H](O)[C@H](C)O3)c3ccc(c(Cl)c3)Oc3cc2cc(c3O[C@@H]2O[C@H](CO)[C@@H](O)[C@H](O)[C@H]2O[C@H]2C[C@](C)(NCc3ccc(-c4ccc(Cl)cc4)cc3)[C@@H](O)[C@H](C)O2)Oc2ccc(cc2Cl)[C@H]1O)N(C)C(=O)CCC(P(=O)(O)O)P(=O)(O)O [Compound 39] | >32 | >32 | >32 | >32 |  | 0.9 | 0.01 |  |  |  | 
8 | CC(C)C[C@H](C(=O)N[C@H]1C(=O)N[C@@H](CC(N)=O)C(=O)N[C@H]2C(=O)N[C@H]3C(=O)N[C@H](C(=O)N[C@H](C(=O)O)c4cc(O)cc(O)c4-c4cc3ccc4O)[C@H](O[C@H]3C[C@](C)(N)[C@@H](O)[C@H](C)O3)c3ccc(c(Cl)c3)Oc3cc2cc(c3O[C@@H]2O[C@H](CO)[C@@H](O)[C@H](O)[C@H]2O[C@H]2C[C@](C)(NCc3ccc(-c4ccc(Cl)cc4)cc3)[C@@H](O)[C@H](C)O2)Oc2ccc(cc2Cl)[C@H]1O)N(C)C(=O)CC(P(=O)(O)O)P(=O)(O)O.N.N.N [Compound 44] | 32 | 32 | 4 | 4 |  |  |  |  |  |  | 
9 | CC(C)C[C@H](C(=O)N[C@H]1C(=O)N[C@@H](CC(N)=O)C(=O)N[C@H]2C(=O)N[C@H]3C(=O)N[C@H](C(=O)N[C@H](C(=O)O)c4cc(O)cc(O)c4-c4cc3ccc4O)[C@H](O[C@H]3C[C@](C)(N)[C@@H](O)[C@H](C)O3)c3ccc(c(Cl)c3)Oc3cc2cc(c3O[C@@H]2O[C@H](CO)[C@@H](O)[C@H](O)[C@H]2O[C@H]2C[C@](C)(NCc3ccc(-c4ccc(Cl)cc4)cc3)[C@@H](O)[C@H](C)O2)Oc2ccc(cc2Cl)[C@H]1O)N(C)C(=O)CCCOC(=O)CC(P(=O)(O)O)P(=O)(O)O [Compound 50] | 32 (≈ 15.3 µM) | >32 | 32 | >32 |  |  |  |  |  |  | 
10 | CN[C@H](CC(C)C)C(=O)N[C@H]1C(=O)N[C@@H](CC(N)=O)C(=O)N[C@H]2C(=O)N[C@H]3C(=O)N[C@H](C(=O)N[C@H](C(=O)O)c4cc(O)cc(O)c4-c4cc3ccc4O)[C@H](O[C@H]3C[C@](C)(N)[C@@H](O)[C@H](C)O3)c3ccc(c(Cl)c3)Oc3cc2cc(c3O[C@@H]2O[C@H](CO)[C@@H](O)[C@H](O)[C@H]2O[C@H]2C[C@](C)(NCc3ccc(-c4ccc(Cl)cc4)cc3)[C@@H](O)[C@H](C)O2)Oc2ccc(cc2Cl)[C@H]1O [Oritavancin (8), oritavancin bisphosphoric acid salt, reference compound] |  |  |  |  |  |  |  | 0.5 | 1 | 2 | 0.25
11 | CN[C@H](CC(C)C)C(=O)N[C@H]1C(=O)N[C@@H](CC(N)=O)C(=O)N[C@H]2C(=O)N[C@H]3C(=O)N[C@H](C(=O)N[C@H](C(=O)O)c4cc(O)cc(O)c4-c4cc3ccc4O)[C@H](O)c3ccc(c(Cl)c3)Oc3cc2cc(c3O[C@@H]2O[C@H](CO)[C@@H](O)[C@H](O)[C@H]2O[C@H]2C[C@](C)(N)[C@H](O)[C@H](C)O2)Oc2ccc(cc2Cl)[C@H]1O [Vancomycin (4), vancomycin hydrochloride, reference compound] |  |  |  |  |  |  |  | 1 | 1 | 2 | 2
